In US12679822B2, “Alkenyl pyrimidine compound, preparation method therefor, and application thereof” (Hongyun Biotech Co., Ltd., priority 2020, dated 2026):

Tests used:
Format in all cases: cell-based
[1] = molecular target: BaF3 cell lines stably transfected with kinase EGFR Del (Homo sapiens, UniProt P00533, cells depend on it, form not given); experiment: Growth inhibition of BaF3 cell line stably transfected with kinase EGFR Del (MTS); conditions: 48 h, read-out: growth inhibitory activity IC50, Del
Method: (§1) Biological Activity Assay: Growth Inhibitory Activity of Compounds on Cell Lines Stably Transfected with Kinase
(§2) The activity of compounds against various mutants of kinase EGFR was evaluated by their effect of inhibiting growth of BaF3 cell lines stably transfected with kinase. The specific test method was given as follows:
(§3) 1) Culture medium: DMEM (Dulbecco's modified eagle medium) or RPMI 1640 (containing 10% fetal bovine serum, 100 μg/mL ampicillin, 100 μg/mL streptomycin).
(§4) 2) Reagent: MTS reaction solution (containing 2 mg/mL of MTS [3-(4,5-di methylthiazol-2-yl)-5-(3-carboxymethoxyphenyl)-2-(4-sulfophenyl)-2H-tetrazolium, inner Salt]; 100 μg/mL of PES (phenazine […])).
(§5) 3) Compound test: cells were incubated into a 96-well culture plate, the volume of cytosol was 90 μL, and then 10 μL of the compound at each gradient concentration was added. That is, the highest concentration was 10 μM, which was diluted stepwise by ⅓, and 8 concentration points were set in total; 0.1% DMSO (dimethyl sulfoxide) was contained in the system. The cell plate with uniformly mixed compound was cultured in a cell culture incubator (37° C.; 5% […]) for 48 h, then 20 μL of MTS reaction solution was added, uniformly mixed and incubated in the cell culture incubator (37° C.; 5% CO2) for 1-4 h; OD values at 490 nm were measured by a microplate reader (VARIOSKAN FLASH, Thermo). Two parallels were set in each group of experiments, with 0.1% (a final concentration) DMSO as a negative control, and a culture medium without cells and compounds as a blank control. The cell growth inhibition rate was calculated by the following formula: Cell growth inhibition rate %=1−(ODexperimental group−ODblank group)/(ODnegative group−ODblank group)×100%.
(§6) 4) IC50 calculation: The semi-inhibitory concentration of the compounds acting on cells was calculated using GradPad Prism 5 software according to the measured cell growth inhibition rate.

[2] = molecular target: BaF3 cell lines stably transfected with kinase EGFR Del/T790M (Homo sapiens, UniProt P00533, T790M, cells depend on it, form not given); experiment: Growth inhibition of BaF3 cell line stably transfected with kinase EGFR Del/T790M (MTS); conditions: 48 h, read-out: growth inhibitory activity IC50, Del/T790M
Sequence of BaF3 cell lines stably transfected with kinase EGFR Del/T790M (P00533 with tags, fused parts or gaps DEL746-750/T790M, form open): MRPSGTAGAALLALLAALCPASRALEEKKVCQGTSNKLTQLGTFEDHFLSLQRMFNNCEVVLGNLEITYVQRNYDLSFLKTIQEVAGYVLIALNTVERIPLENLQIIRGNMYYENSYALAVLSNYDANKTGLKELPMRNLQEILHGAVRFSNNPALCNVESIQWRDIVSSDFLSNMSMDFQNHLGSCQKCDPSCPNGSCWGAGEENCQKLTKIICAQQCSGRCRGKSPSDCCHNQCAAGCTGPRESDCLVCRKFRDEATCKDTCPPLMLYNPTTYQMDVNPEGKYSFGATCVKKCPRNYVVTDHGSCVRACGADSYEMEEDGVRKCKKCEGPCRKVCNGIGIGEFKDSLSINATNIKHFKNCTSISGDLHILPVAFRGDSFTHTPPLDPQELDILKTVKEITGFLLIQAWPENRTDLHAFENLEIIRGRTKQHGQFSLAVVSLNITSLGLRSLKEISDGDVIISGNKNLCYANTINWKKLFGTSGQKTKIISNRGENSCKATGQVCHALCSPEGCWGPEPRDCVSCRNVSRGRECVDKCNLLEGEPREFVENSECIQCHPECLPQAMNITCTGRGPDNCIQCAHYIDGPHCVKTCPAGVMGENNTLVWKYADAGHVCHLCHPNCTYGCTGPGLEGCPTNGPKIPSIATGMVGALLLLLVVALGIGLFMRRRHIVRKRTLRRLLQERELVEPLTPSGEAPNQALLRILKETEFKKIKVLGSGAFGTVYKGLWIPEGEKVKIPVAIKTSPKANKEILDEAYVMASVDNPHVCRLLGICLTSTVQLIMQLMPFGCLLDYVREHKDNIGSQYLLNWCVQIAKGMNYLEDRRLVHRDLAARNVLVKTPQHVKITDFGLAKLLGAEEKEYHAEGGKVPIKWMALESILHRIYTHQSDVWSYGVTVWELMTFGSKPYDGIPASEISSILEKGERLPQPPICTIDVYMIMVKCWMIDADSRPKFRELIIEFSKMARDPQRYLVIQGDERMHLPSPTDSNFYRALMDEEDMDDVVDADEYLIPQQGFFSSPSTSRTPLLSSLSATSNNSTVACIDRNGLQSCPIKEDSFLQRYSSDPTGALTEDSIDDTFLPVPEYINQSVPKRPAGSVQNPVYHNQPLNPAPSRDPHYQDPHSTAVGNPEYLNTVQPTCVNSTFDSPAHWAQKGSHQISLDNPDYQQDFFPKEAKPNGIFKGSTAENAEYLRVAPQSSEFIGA
Method: as §1, §2, §3, §4, §5, §6

[3] = molecular target: BaF3 cell lines stably transfected with kinase EGFR L858R/T790M/C797S (Homo sapiens, UniProt P00533, T790M/C797S/L858R, cells depend on it); experiment: Growth inhibition of BaF3 cell line stably transfected with kinase EGFR L858R/T790M/C797S (MTS); conditions: 48 h, read-out: growth inhibitory activity IC50, L858R/T790M/C797S
Sequence of BaF3 cell lines stably transfected with kinase EGFR L858R/T790M/C797S (P00533 whole entry T790M/C797S/L858R): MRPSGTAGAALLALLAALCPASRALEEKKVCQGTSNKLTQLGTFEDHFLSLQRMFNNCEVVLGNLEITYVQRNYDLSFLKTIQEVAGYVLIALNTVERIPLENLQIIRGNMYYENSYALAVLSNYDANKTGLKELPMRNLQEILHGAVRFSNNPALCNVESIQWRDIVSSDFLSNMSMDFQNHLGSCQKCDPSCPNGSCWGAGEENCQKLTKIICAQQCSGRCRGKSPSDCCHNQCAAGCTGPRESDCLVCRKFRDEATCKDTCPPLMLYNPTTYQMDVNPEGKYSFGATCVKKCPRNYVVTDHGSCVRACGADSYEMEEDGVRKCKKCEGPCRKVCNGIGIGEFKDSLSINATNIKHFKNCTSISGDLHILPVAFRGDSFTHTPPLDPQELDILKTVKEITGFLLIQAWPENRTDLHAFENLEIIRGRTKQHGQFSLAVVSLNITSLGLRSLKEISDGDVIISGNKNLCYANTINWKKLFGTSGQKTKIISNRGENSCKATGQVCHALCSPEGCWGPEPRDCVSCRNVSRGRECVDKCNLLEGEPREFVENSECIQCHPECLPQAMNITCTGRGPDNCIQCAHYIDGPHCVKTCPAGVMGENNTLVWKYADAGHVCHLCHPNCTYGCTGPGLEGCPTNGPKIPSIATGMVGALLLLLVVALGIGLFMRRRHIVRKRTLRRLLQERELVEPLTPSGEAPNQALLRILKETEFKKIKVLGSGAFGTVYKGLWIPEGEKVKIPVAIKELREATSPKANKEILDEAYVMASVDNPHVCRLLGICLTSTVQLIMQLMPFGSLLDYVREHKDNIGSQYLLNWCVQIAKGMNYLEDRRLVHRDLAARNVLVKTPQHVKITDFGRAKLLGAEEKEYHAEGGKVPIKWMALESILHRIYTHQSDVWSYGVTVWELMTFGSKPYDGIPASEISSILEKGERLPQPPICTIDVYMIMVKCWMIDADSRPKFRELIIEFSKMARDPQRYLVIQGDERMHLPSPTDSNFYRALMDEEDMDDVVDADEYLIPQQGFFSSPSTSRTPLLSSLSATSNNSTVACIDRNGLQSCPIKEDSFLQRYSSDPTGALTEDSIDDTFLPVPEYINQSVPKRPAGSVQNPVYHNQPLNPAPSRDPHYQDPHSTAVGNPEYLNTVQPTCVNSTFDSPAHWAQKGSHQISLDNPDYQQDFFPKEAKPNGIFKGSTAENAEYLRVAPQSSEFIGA
Method: as §1, §2, §3, §4, §5, §6

[4] = molecular target: BaF3 cell lines stably transfected with kinase EGFR Del/T790M/C797S (Homo sapiens, UniProt P00533, T790M/C797S, cells depend on it, form not given); experiment: Growth inhibition of BaF3 cell line stably transfected with kinase EGFR Del/T790M/C797S (MTS); conditions: 48 h, read-out: growth inhibitory activity IC50, Del/T790M/C797S
Sequence of BaF3 cell lines stably transfected with kinase EGFR Del/T790M/C797S (P00533 with tags, fused parts or gaps DEL746-750/T790M/C797S, form open): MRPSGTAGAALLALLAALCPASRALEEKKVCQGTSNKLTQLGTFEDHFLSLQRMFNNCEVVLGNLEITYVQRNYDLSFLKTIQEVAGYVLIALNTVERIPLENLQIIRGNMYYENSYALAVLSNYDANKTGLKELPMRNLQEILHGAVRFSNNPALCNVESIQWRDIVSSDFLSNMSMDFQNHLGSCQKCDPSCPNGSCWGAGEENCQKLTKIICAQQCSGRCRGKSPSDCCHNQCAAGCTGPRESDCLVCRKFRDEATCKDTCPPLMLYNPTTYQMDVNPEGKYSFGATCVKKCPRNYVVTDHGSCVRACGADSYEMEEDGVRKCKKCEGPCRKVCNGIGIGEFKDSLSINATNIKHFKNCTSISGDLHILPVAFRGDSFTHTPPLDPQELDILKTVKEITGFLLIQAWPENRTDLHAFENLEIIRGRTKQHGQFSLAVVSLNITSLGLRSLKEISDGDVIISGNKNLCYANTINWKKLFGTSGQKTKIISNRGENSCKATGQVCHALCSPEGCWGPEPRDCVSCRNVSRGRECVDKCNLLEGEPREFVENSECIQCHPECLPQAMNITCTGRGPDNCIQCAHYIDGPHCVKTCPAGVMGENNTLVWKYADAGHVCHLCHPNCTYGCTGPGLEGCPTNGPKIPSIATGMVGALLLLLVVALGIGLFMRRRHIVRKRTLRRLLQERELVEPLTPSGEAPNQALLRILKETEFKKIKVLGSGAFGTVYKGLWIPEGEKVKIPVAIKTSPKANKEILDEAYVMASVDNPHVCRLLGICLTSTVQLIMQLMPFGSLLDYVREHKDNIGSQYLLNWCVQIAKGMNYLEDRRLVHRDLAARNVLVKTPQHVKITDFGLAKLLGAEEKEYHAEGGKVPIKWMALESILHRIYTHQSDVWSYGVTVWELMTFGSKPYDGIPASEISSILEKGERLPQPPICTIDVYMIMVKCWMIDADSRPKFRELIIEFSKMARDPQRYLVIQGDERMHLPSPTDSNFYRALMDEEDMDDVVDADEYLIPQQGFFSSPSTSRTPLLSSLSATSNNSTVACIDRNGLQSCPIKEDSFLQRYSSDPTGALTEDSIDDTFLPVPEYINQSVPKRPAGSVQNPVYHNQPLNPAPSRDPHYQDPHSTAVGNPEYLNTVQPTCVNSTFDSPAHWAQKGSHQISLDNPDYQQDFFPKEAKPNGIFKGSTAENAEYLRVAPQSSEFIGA
Method: as §1, §2, §3, §4, §5, §6

[5] = molecular target: BaF3 cell lines stably transfected with kinase EGFR L858R/T790M (Homo sapiens, UniProt P00533, T790M/L858R, cells depend on it); experiment: Growth inhibition of BaF3 cell line stably transfected with kinase EGFR L858R/T790M (MTS); conditions: 48 h, read-out: growth inhibitory activity IC50, L858R/T790M
Sequence of BaF3 cell lines stably transfected with kinase EGFR L858R/T790M (P00533 whole entry T790M/L858R): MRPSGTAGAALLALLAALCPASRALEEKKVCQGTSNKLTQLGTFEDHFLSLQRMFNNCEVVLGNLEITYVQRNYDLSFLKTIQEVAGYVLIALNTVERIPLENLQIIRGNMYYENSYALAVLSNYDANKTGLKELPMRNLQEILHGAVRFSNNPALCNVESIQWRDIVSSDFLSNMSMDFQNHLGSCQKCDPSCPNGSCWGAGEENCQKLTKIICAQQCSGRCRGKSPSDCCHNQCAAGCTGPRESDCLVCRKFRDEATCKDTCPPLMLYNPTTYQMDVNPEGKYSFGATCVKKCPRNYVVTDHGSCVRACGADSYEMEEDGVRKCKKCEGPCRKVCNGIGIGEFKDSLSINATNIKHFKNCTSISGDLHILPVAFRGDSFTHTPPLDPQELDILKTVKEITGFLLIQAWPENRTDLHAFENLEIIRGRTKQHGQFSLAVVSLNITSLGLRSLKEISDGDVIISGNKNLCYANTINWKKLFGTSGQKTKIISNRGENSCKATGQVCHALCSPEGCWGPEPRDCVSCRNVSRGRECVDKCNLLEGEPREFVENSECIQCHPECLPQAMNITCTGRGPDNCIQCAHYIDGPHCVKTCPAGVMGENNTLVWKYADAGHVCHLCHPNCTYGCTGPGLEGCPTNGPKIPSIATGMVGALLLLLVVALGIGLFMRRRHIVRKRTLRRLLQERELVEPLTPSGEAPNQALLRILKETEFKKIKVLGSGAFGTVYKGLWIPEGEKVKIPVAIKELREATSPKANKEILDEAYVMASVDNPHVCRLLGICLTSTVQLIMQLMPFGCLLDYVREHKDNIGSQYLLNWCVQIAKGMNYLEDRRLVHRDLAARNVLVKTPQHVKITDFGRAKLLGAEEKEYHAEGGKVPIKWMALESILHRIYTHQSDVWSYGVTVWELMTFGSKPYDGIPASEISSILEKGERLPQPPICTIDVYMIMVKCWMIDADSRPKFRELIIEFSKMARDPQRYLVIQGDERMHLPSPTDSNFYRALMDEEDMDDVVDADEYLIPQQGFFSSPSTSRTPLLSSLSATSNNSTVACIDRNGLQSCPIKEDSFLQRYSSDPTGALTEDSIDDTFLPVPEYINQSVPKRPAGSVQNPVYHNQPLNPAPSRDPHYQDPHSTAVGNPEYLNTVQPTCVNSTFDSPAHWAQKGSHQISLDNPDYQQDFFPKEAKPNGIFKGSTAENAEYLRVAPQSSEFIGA
Method: as §1, §2, §3, §4, §5, §6

[6] = molecular target: BaF3 cell lines stably transfected with kinase EGFR L858R (Homo sapiens, UniProt P00533, L858R, cells depend on it); experiment: Growth inhibition of BaF3 cell line stably transfected with kinase EGFR L858R (MTS); conditions: 48 h, read-out: growth inhibitory activity IC50, L858R
Method: as §1, §2, §3, §4, §5, §6

Compound `C=Cc1cnc(Nc2cc(CC)c(N3CCC(N(C)C)CC3)cc2OC)nc1Nc1ccc2nccnc2c1S(=O)(=O)NC` [IV-13] has a GI50 [1] of 50 to 500 nM, a GI50 [2] of 50 to 500 nM and a GI50 [3] of 50 to 500 nM. For the same compound, the GI50 [4] was 50 to 500 nM, the GI50 [5] was 50 to 500 nM and the GI50 [6] was 50 to 500 nM.

With `C=Cc1cnc(Nc2cc3c(cc2F)CCN(C)C3)nc1Nc1ccc2nccnc2c1P(C)(C)=O` [Compound I-23] the GI50 [1] was 50 to 500 nM, the GI50 [2] was 50 to 500 nM and the GI50 [3] was 50 to 500 nM. The GI50 [4] was 500 to 2500 nM, the GI50 [5] was 50 to 500 nM and the GI50 [6] was 50 to 500 nM.

With `C=Cc1cnc(Nc2cc(C(C)C)c(N3CCC(N4CCN(C)CC4)CC3)cc2OC)nc1Nc1ccc2nccnc2c1S(=O)(=O)C(C)C` [III-20] the GI50 [1] was 500 to 2500 nM, the GI50 [2] was 500 to 2500 nM and the GI50 [3] was 500 to 2500 nM. The GI50 [4] was 500 to 2500 nM, the GI50 [5] was 50 to 500 nM and the GI50 [6] was 50 to 500 nM.

`C=Cc1cnc(Nc2cc(CC)n(C)n2)nc1Nc1ccc2nccnc2c1N(C)S(C)(=O)=O` [II-63] showed a GI50 [1] of 50 to 500 nM, a GI50 [2] of 50 to 500 nM and a GI50 [3] of 50 to 500 nM. For the same compound, the GI50 [4] was 50 to 500 nM, the GI50 [5] was 50 to 500 nM and the GI50 [6] was 500 to 2500 nM.

In the case of `C=Cc1cnc(Nc2cc(CC)c(N3CCN(C)CC3)cc2OC)nc1Nc1ccc2nccnc2c1S(C)(=O)=O` [III-4], the GI50 [1] is reported as 500 to 2500 nM, the GI50 [2] is reported as 500 to 2500 nM and the GI50 [3] is reported as 500 to 2500 nM. For the same compound, the GI50 [4] was 500 to 2500 nM, the GI50 [5] was 50 to 500 nM and the GI50 [6] was 500 to 2500 nM.

In the case of `C=Cc1cnc(Nc2cc(CC3CC3)c(N3CCC(N4CCN(C)CC4)CC3)cc2OC)nc1Nc1ccc2nccnc2c1NS(C)(=O)=O` [II-37], the GI50 [1] is reported as ≤ 50 nM, the GI50 [2] is reported as ≤ 50 nM and the GI50 [3] is reported as ≤ 50 nM. The GI50 [4] was 50 to 500 nM, the GI50 [5] was 50 to 500 nM and the GI50 [6] was ≤ 50 nM.

For `C=Cc1cnc(Nc2ccc3c(c2)CN(C)CC3)nc1Nc1ccc2nccnc2c1N(C)S(C)(=O)=O` [II-77], the GI50 [1] was ≤ 50 nM, the GI50 [2] was ≤ 50 nM and the GI50 [3] was ≤ 50 nM. For the same compound, the GI50 [4] was 50 to 500 nM, the GI50 [5] was ≤ 50 nM and the GI50 [6] was ≤ 50 nM.

Compound `C=Cc1cnc(Nc2cc[nH]n2)nc1Nc1ccc2nccnc2c1N(C)S(C)(=O)=O` [II-59] has a GI50 [1] of 50 to 500 nM, a GI50 [2] of 500 to 2500 nM and a GI50 [3] of 500 to 2500 nM. It also gave a GI50 [4] of 500 to 2500 nM, a GI50 [5] of 500 to 2500 nM and a GI50 [6] of 500 to 2500 nM.

`C=Cc1cnc(Nc2cc(CC)c(N3CCC(N4CCN(C)CC4)CC3)cc2OC(F)(F)F)nc1Nc1ccc2nccnc2c1P(C)(C)=O` [Compound I-6] was tested, and the GI50 [1] was 50 to 500 nM, the GI50 [2] was ≤ 50 nM and the GI50 [3] was ≤ 50 nM. The GI50 [4] was ≤ 50 nM, the GI50 [5] was ≤ 50 nM and the GI50 [6] was ≤ 50 nM.

`C=Cc1cnc(Nc2cc(CC)c(N3CCC(N4CCN(C)CC4)CC3)cc2OC)nc1Nc1ccc2nccnc2c1N(C)S(=O)(=O)C(F)(F)F` [II-8] showed a GI50 [1] of 50 to 500 nM, a GI50 [2] of 50 to 500 nM and a GI50 [3] of 50 to 500 nM. For the same compound, the GI50 [4] was 50 to 500 nM, the GI50 [5] was 50 to 500 nM and the GI50 [6] was 50 to 500 nM.

For `C=C(C)c1cnc(Nc2cc(CC)c(N3CCC(N4CCN(C)CC4)CC3)cc2OC)nc1Nc1ccc2nccnc2c1N(C)S(C)(=O)=O` [II-21], the GI50 [1] was ≤ 50 nM, the GI50 [2] was ≤ 50 nM and the GI50 [3] was ≤ 50 nM. The GI50 [4] was ≤ 50 nM, the GI50 [5] was ≤ 50 nM and the GI50 [6] was ≤ 50 nM.

`C=Cc1cnc(Nc2ccc(N3CCC(N4CCN(C)CC4)CC3)cc2OC)nc1Nc1ccc2nccnc2c1N(C)S(C)(=O)=O` [II-16] showed a GI50 [1] of 50 to 500 nM, a GI50 [2] of 50 to 500 nM and a GI50 [3] of 50 to 500 nM. It also gave a GI50 [4] of 50 to 500 nM, a GI50 [5] of 500 to 2500 nM and a GI50 [6] of 500 to 2500 nM.

With `C=Cc1cnc(Nc2cc(CC)c(N3CCN(C)CC3)cc2OC)nc1Nc1ccc2nccnc2c1P(C)(C)=O` [Compound I-4] the GI50 [1] was ≤ 50 nM, the GI50 [2] was ≤ 50 nM and the GI50 [3] was ≤ 50 nM. The GI50 [4] was ≤ 50 nM, the GI50 [5] was ≤ 50 nM and the GI50 [6] was ≤ 50 nM.

With `C=Cc1cnc(Nc2cc(C3CC3)c(N3CCC(N4CCN(C)CC4)CC3)cc2OC)nc1Nc1ccc2nccnc2c1N(C)S(C)(=O)=O` [II-18] the GI50 [1] was 50 to 500 nM, the GI50 [2] was ≤ 50 nM and the GI50 [3] was 50 to 500 nM. The GI50 [4] was 50 to 500 nM, the GI50 [5] was 50 to 500 nM and the GI50 [6] was 50 to 500 nM.
